Results reported in patent US20260014109A1, “VERY LONG CHAIN FATTY ACIDS FOR TREATMENT AND ALLEVIATION OF DISEASES” (EPAX NORWAY AS, priority 2019, published 2026).

Tests used:
ATCC human skin cells = test: Content of C26:6n-3 in ATCC human skin cells after supplementation of the culture medium (Example 5, 1B); assay type: cell-based; conditions: media with 10 and 20 μM for 4 days; increase from 0.7; p=0.001 (ANOVA)
Description: (§1) A commercial human dermal fibroblast cell line (ATCC PCS-201-012) was cultured in Dulbecco's modified Eagle's medium according to the method described by Vuong et al2.
ATCC cells were cultivated in a media supplemented with 10 and 20 μM Lipid composition B for 4 days before harvesting for determination of fatty acid composition. It was made a pooled sample of three replicates per group prior to lipid extraction by the method by Folch et al1.

[1] = tested on: skin cells (keratocytes) from salmon shells; test: Cell migration from salmon shells (Example 5, 2); assay type: cell-based, Atlantic salmon; design: cell migration from salmon shells, first time point: dose or concentration left out as unconfirmed
Description: Primary cell cultures of skin cells (keratocytes) from salmon shells were isolated from freshwater Atlantic salmon. […] Negative control was albumin in PBS.
The second day after isolation of shells, all wells with the different treatments were inspected under microscope and images taken.
Salmon shells were plucked from freshwater salmon and placed in wells with culture medium, incubated at 13° C. without CO2 and inspected for cell migration the following days. […] Control was albumin in PBS. (n=6). The scale of the y—axis represents no cell migration (0%) to cell migration from all shells (100%). Different letters denote significant differences (p≤0,05).

ATCC cells = test: Proliferation assay in ATCC human dermal fibroblasts (Example 5); assay type: cell-based; conditions: incubation until about 50% confluency, albumin controls
Description: as §1
The proliferation assay measures the density/number of cells in culture by fluorescence staining of nucleic acids.
FIG. 28 provides the measurement of cell proliferation after incubation with Lipid composition B until about 50% confluency. Results are presented as the mean±SEM (n=4). The asterisks (*) indicate significant difference between groups. Control 1 and 2 represent albumin equivalent to the albumin concentration in the 20 µM Lipid composition B substrate.

[2] = tested on: human dermal fibroblast cell line (ATCC PCS-201-012); test: Scratch assay (in-vitro wound healing model) in human dermal fibroblasts (Example 5); assay type: cell-based; conditions: 10 μM, after 24 hours, control albumin in PBS
Description: as §1
ATCC cells were seeded in wells with 2 mL culture media supplemented with 1, 2 and 4 μM Lipid composition A. Control was albumin in PBS. At ˜90-100% confluency, a scratch was created, and wells were thereafter photographed at several time points up to 24 hours. The migration of cells into the scratch/closure of wound over time was examined in light microscopy and images were taken. The scratch/wound closure rate was measured by % confluency in scratch opening (the higher values the better closure of wound).
Cells were seeded in wells with 2 mL culture media supplemented with 10 μM Lipid composition B (6 replicates). Control was albumin in PBS. At ˜90-100% confluency, a scratch was created, and wells were thereafter photographed at several time points up to 24 hours. […]
FIG. 29 provides the effect of Lipid composition B on closure rate of scratch. […] Cells were then scratched and cell migration into wound was followed at different time points (0 and 24 hours shown), using Fiji/ImageJ software, as illustrated in figure A. Scratch size was analyzed as mean percentage decline (calculated from each well's original size at 0 hours to size measured at 24 hours (n=6, results presented in figure B).

[3] = tested on: skin cells (keratocytes) from salmon shells; test: Cellular content of C26:6n-3 in primary skin cells (keratocytes) from Atlantic salmon (Example 5, 2); assay type: cell-based; conditions: 20 µM group; 0% in the control group
Description: Primary cell cultures of skin cells (keratocytes) from salmon shells were isolated from freshwater Atlantic salmon. The shells were carefully placed in plate wells and incubated at 13° C. in growth media (L-15) supplemented with 10 μM or 20 μM of the Lipid composition B (26:6n-3) or 25 ng/ml fibroblast growth factor (FGF) as a positive control. Negative control was albumin in PBS.

**Q.** CC/C=C\C/C=C\C/C=C\C/C=C\C/C=C\C/C=C\CCCCCCC(=O)O [Lipid composition B, C26:6n-3] was tested. Which “content of C26:6n-3 in ATCC human skin cells” value (ATCC human skin cells) did it give?
**A.** 5.5 % of total FAs

**Q.** What about the “cell migration in salmon skin cell culture relative to control” value ([1]; 10 µM) of the same molecule?
**A.** significantly increased cell migration

**Q.** And the “cell migration from salmon shells, last time point” value ([1]; low dose (10 µM))?
**A.** most effect on cell migration

**Q.** What about the “cell migration from salmon shells, first time point” value ([1]; relative to albumin control) of the same molecule?
**A.** similar, immediate increased cell migration effect as the FGF

**Q.** And the “cell count (proliferation) compared to controls” value (ATCC cells)?
**A.** significantly higher cell count

**Q.** And the “wound closure rate by reduced size of wound diameter compared to control” value [2]?
**A.** tendencies to increased wound closure rate

**Q.** What about the “cellular content of the C26:6n-3 fatty acid in salmon skin cells” value [3] of the same molecule?
**A.** 1.4%
